TGI and GI50 data for 18 compounds are collected here from PubChem BioAssay (NCI).

Common to all, as to test: NCI tumour cell line growth inhibition, 48 h
In experiment [1] the test system is LOX IMVI melanoma.
Experiment [2] deals with OVCAR-4 ovarian.
Experiment [3] concerns SK-MEL-5 melanoma.
The test system of experiment [4] is U251 CNS.
For experiment [5], the system named is SNB-19 CNS.
Experiment [6] deals with UO-31 renal.
The test system of experiment [7] is HCT-116 colon.
Experiment [8] has as its system PC-3 prostate.
The subject of experiment [9] is NCI/ADR-RES ovarian.
For experiment [10], the system named is SW-620 colon.
For experiment [11], the system named is UACC-62 melanoma.
For experiment [12], the system named is RPMI-8226 leukemia.
Experiment [13] deals with HL-60(TB) leukemia.
Experiment [14] relates to HCC-2998 colon.

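Exposure lasted 48 hours, with cells grown in 96-well plates and compounds tested at five concentrations. At the GI50, growth is halved. TGI: total growth inhibition.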

With `CC(NC(=O)NC(C)(C)C)NC(=O)C(N)CC(=O)O` (stereo not drawn), the TGI in [1], in experiment [2], in experiment [3], in [4], in [5] and in experiment [6] was over 100 µM throughout. The TGI in [7], in experiment [8], in experiment [9], in experiment [10], in experiment [11] and in experiment [12] was over 100 µM each time.

Regarding `CCC1(N=[N+]=[N-])C(=O)c2ccccc2N(C)C1=O` (stereo not drawn), the TGI in experiment [1], in experiment [2], in experiment [3], in experiment [4], in [5] and in experiment [13] was over 100 µM each time. Also, the TGI in experiment [14], in [6], in experiment [7], in experiment [10] and in [11] was over 100 µM each time.

For `O=S(=O)(O)c1cc(N=Nc2c(O)ccc3ccccc23)ccc1/C=C/c1ccc(N=Nc2c(O)ccc3ccccc23)cc1S(=O)(=O)O`, the TGI in experiment [2], in experiment [3], in [4], in experiment [5], in [6] and in experiment [7] was over 100 µM each time. Further, the TGI in [8], in experiment [9], in [10], in experiment [11] and in experiment [12] was over 100 µM each time.

Consider `Cc1c2c3ccccc3nc-2n(C)c2ccccc12`, for which the TGI was 2.2 µM in [3]; 12.7 µM in experiment [4]; 44.5 µM in experiment [5]; 11.4 µM in experiment [14]; 6.25 µM in [6]; over 100 µM in [7]. In addition, the TGI is 7.5 µM in [8]; 6.78 µM in [9]; 12.9 µM in experiment [10]; 3.67 µM in experiment [11]; 52.7 µM in experiment [12].

`O=CNNC(=O)Nc1cccc2ccccc12`: the TGI in experiment [2], in experiment [3], in experiment [4], in experiment [5], in experiment [13] and in experiment [14] was over 100 µM throughout. Moreover, the TGI in experiment [6], in experiment [7], in experiment [9], in experiment [10], in experiment [11] and in experiment [12] was over 100 µM each time.

As for `O=C1CC2CC3OC3[C@H]3c4cc5c(cc4C(=O)N1C23)OCO5` (stereo partly drawn), the TGI in [1], in experiment [2], in experiment [5], in [13], in experiment [14] and in experiment [6] was over 100 µM each time. Besides, the TGI in [7], in experiment [10], in experiment [11] and in [12] was over 100 µM throughout.

`O=C(N/N=C/c1cc(Cl)cc(Cl)c1[O-])c1ccccc1O.O=C(N/N=C/c1cc(Cl)cc(Cl)c1[O-])c1ccccc1O.[Co+2]`: the TGI in experiment [1] was determined as 11.8 µM; in experiment [2], 7.07 µM; in [3], 2.53 µM; in experiment [4], 3.73 µM; in experiment [13], 0.634 µM; in [14], 6.63 µM. In addition, the TGI in experiment [6] came to 6.72 µM; in experiment [7], 14 µM; in experiment [10], 16.8 µM; in experiment [11], 3.43 µM. Besides, the GI50 in [7] was 0.552 µM.

`COc1cc(C(C)O)c(S(=O)(=O)CC(C)O)nn1` (stereo not drawn): the TGI in experiment [1], in experiment [2], in [3], in experiment [5], in [13] and in [14] was over 100 µM throughout. Moreover, the TGI in experiment [6], in experiment [7], in experiment [9], in [10], in experiment [11] and in [12] was over 100 µM throughout.

For `O=c1cc(CO)oc2c3c(cc(O)c12)OCC(COC1OC(CO)C(O)C(O)C1O)=CC3` (stereo not drawn), the TGI in experiment [1], in experiment [2], in [3], in [4], in experiment [5] and in [13] was over 100 µM throughout. In addition, the TGI in experiment [14], in experiment [6], in experiment [7], in experiment [10], in experiment [11] and in experiment [12] was over 100 µM throughout.

As to `O=C1/C(=C\c2cccc(Oc3ccccc3)c2)SC(c2ccccc2)N1c1ccccc1` (stereo not drawn), the TGI in experiment [1], in experiment [2], in experiment [3], in experiment [4], in experiment [5] and in experiment [13] was over 100 µM in each case. In addition, the TGI in [14], in experiment [6], in [7], in [9], in experiment [10] and in experiment [11] was over 100 µM each time. Also, the TGI in experiment [12] was 50.3 µM.

As to `O=C1C(Br)=C(c2ccccc2)O/C1=C/C(=O)c1ccc(Br)cc1`, the TGI in experiment [2] was over 100 µM; in experiment [3], over 100 µM; in experiment [4], over 100 µM; in [5] it was over 100 µM; in experiment [13], 52.4 µM; in [14], over 100 µM. The TGI in experiment [6] is over 100 µM; in experiment [7], over 100 µM; in [8], 53.3 µM; in experiment [10], 47.3 µM; in [11] it was over 100 µM; in experiment [12], 62.7 µM.

With `CC(=O)OCC1OC(n2cc(F)c(=O)[nH]c2=O)C(NC(=O)OCc2ccccc2)C(OC(C)=O)C1OC(C)=O` (stereo not drawn), the TGI in experiment [1], in experiment [2], in [3], in experiment [4], in [5] and in [13] was over 100 µM throughout. For the same compound, the TGI in experiment [14], in experiment [6], in experiment [7], in experiment [9], in experiment [10] and in [11] was over 100 µM throughout. Moreover, the TGI in experiment [12] was over 100 µM.

With `O=C(/C=C/c1ccc(-c2ccccc2)cc1)NCc1ccc(C(=O)NCc2ccccc2)cc1`, the TGI in experiment [1], in experiment [2], in experiment [3], in [4], in experiment [5] and in [14] was over 100 µM throughout. The TGI in [6], in experiment [7], in [8], in [9], in experiment [10] and in experiment [11] was over 100 µM in each case.

On to `CCOc1ccc2[nH]c3c(C)c4ccncc4c(C)c3c2c1`, for which the TGI in [1] worked out at 2.49 µM; in [2] it was 2.72 µM; in experiment [3] it was 2.86 µM; in experiment [4], 2.16 µM; in experiment [5], 2.77 µM; in experiment [14] it was 2.74 µM. Further, the results for the TGI in experiment [6], in experiment [7] and in experiment [10] were 13.9 µM, 1.78 µM and 1.75 µM, respectively.

On to `CCOC(=O)c1nnsc1N/N=C\c1ccc([N+](=O)[O-])cc1`, for which the TGI in experiment [2], in experiment [3], in [4], in [5], in experiment [14] and in [6] was over 100 µM in each case. In addition, the TGI in experiment [7], in experiment [8], in experiment [9], in experiment [10], in experiment [11] and in experiment [12] was over 100 µM each time.

As for `O=C1c2ccccc2C(=O)c2cc(N=Nc3c(O)ccc4ccccc34)ccc21`, the TGI in experiment [1], in experiment [2], in experiment [3], in [4], in experiment [5] and in experiment [6] was over 100 µM in each case. Also, the TGI in [7], in experiment [8], in experiment [9], in experiment [10], in [11] and in experiment [12] was over 100 µM in each case.

Consider `Brc1ccc(C[P+]2(c3ccccc3)CCCCC2)cc1`, for which the TGI in experiment [1] is over 100 µM; in experiment [3], 39.1 µM; in [4], over 100 µM; in experiment [5] it was over 100 µM; in experiment [13], 75.8 µM; in experiment [14], over 100 µM. Further, the TGI in [6], in [7], in experiment [10], in [11] and in [12] was over 100 µM each time.

For `c1cc2c(s1)-c1sccc1C21OCCO1`, the TGI in experiment [1], in experiment [2], in experiment [3], in experiment [4], in [5] and in experiment [13] was over 100 µM each time. In addition, the TGI in experiment [14], in [6], in [7], in [9], in experiment [11] and in [12] was over 100 µM each time.
